Assay results as given in patent US11306102B2, “1,3-di-substituted ketene compound and application thereof” (BEBETTER MED INC., priority 2017, dated 2022).

Columns and labels:
[1] = biological target: T1, PPARγ (Homo sapiens, UniProt P37231); assay: Hela cell/luciferase reporter gene method, PPARγ agonist activity; format: cell-based; conditions: for EC50: Hela cells, pPPRE3-TK-Luciferase reporter, 24 hrs incubation, read-out: agonistic activity on PPARγ (EC50)
T1 construct: expressed in transfected cells; host or cells: Hela cells
T1 sequence (P37231 1-505): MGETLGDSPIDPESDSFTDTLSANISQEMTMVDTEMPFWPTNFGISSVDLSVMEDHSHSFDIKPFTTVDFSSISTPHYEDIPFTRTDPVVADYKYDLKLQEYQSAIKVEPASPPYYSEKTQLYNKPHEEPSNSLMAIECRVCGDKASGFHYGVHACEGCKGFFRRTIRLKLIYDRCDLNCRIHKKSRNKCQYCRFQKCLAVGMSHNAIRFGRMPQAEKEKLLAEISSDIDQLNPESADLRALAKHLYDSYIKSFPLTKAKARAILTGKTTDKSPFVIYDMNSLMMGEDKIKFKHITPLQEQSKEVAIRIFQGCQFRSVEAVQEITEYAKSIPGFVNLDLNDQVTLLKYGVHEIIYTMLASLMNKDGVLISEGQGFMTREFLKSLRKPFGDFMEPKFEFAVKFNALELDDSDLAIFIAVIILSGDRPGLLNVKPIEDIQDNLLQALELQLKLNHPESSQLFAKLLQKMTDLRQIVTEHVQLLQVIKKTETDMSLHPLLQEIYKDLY
Experimental: This example measures the biological activity of a PPAR agonist using the Hela cell/luciferase reporter gene method.
The target plasmids PCMV PPARα (Ampicillin+), PCMV PPARγ (Ampicillin+), PCMV PPARδ (Ampicillin+), and pPPRE3-TK-Luciferase (Ampicillin+) were introduced into DH5a competent cells by heat shock treatment, respectively. After being incubated for 1 hour at 37° C. with shaking (180 rpm), the cells were inoculated on LB agar solid medium containing antibiotic Ampicillin, and invertedly cultured at 37° C. for 12-16 hours. Then the monoclonal colony cultured on the medium was taken and inoculated into LB liquid medium for expanded culture. The desired plasmid was extracted from the resulting bacterial solution with a Plasmid Midi Kit (Qiagen; #12143). The plasmid obtained by centrifugation was suspended in TE buffer, and the plasmid concentration was measured and the mixture was stored at −20° C. Hela cells in the exponential phase were seeded in 6-well plates (8-10^5 cells/well), and after 6-8 hours of culture, the cells were transfected using Lipofectamine® 3000 Transfection Reagent (Invitrogen; #L3000015). A plasmid containing a PPAR binding site (peroxisome proliferator response element, PPRE) and a firefly luciferase gene (pPPRE3-TK-Luciferase) and PPAR expression vector were co-transfected into a Hela cell with a total amount of plasmid DNA of 2.5 ug (the mass ratio of each PPAR expression vector is pPPRE:PPARα=6:1, pPPRE:PPARδ=8:1, and pPPRE:PPARγ=2:1) to construct a drug screening cell model for PPAR agonists. PPAR was binded to the ligand and then binded to the peroxisome proliferator response element (PPRE), thereby initiating downstream firefly luciferase expression and its expression intensity was directly proportional to the degree of PPAR activation. The cells after 24 hours transfection were prepared into a cell suspension with a cell concentration of […] by a complete culture solution, and seeded into a 96-well plate with 100 ul per well. After overnight culture, the medium was changed to a medium containing 1% FBS. 10 mM candidate compound stock (1000×) were 4-fold diluted in DMSO for 8 points, then supplemented with medium containing 1% FBS to a final concentration of 50 uM (5×) by addition of 25 μl of 5× compound diluent to each well in different concentration gradients and incubated under 37° C., 5% CO2 incubator for 24 hrs. The 96-well plate was taken out and 30 μl of Bright-Glo™ Luciferase Assay System (Promega #E2620) was added to each well. The Luciferase luminescence intensity was measured by a SynergyH1 full-function microplate detector. The obtained data was used to calculate EC50 using GraphPad Prism 5.0 software to determine the biological activity of the compound.
The agonistic activity of the compounds synthesized in Examples 1-41 on PPAR is represented by EC50 (see Table 1). EC50 refers to the drug concentration at which the compound has a 50% increase in the agonistic activity of the measured PPAR. The compound numbers in Table 1 correspond to the compound numbers in Examples 1-41.

[2] = Pharmacokinetic (PK) experiments after intragastric administration in rats; format: in vivo, SD rats; conditions: for AUC(0-inf) / AUC(0-t) / Cmax / Tmax / half-life: male, SD, rat, plasma, po, intragastric administration 20 mg/kg; for half-life: read-out: Terminal T1/2 (converted)
Experimental: Male SD rats, weighing 250-300 grams, were fasted overnight before testing. The test compound was dissolved in 30% sulfobutyl-R-cyclodextrin (SBE-β-CD) and administered intragastrically at a dose of 20 mg/kg. Blood was collected 15 minutes, 30 minutes, and 1, 2, 3, 4, […] and 24 hours after the administration. About 0.3 ml of blood was collected at each time point, placed in a centrifuge tube containing K2-EDTA (dipotassium ethylenediamine tetraacetate) and centrifuged (2,000 g, 10 minutes, 4° C.) to take the plasma, which was stored in an ultra-low temperature refrigerator at −80° C. A 50 μL plasma sample was mixed with 5 μl of internal standard (IS) and extracted with ethyl acetate. The residue was redissolved in acetonitrile after drying under vacuum. The sample was filtered and injected into an LC-MS/MS for analysis.

Compound	EC50 [1] [nM]	AUC(0-inf) [2] [ng·h/mL]	AUC(0-t) [2] [ng·h/mL]	Cmax [2] [ng/mL]	Tmax [2] [h]	half-life [2] [h]	absorption after oral administration compared with Elafibranor (in words) [2]	blood exposure after oral administration compared with Elafibranor (in words) [2]	half-life after oral administration compared with Elafibranor (in words) [2]	activation of PPARγ compared with Elafibranor (in words) [1]
CSc1cccc2oc(C(=O)/C=C/c3cc(C)c(OC(C)(C)C(=O)O)c(C)c3)cc12 [Compound 60, (E)-2-(2,6-dimethyl-4-(3-(4-(methylthio)benzofuran-2-yl)-3-oxoprop-1-en-1-yl)phenoxy)-2-methylpropanoic acid]	92.3									
CCSc1ccc2c(C)c(C(=O)/C=C/c3cc(C)c(OC(C)(C)C(=O)O)c(C)c3)oc2c1 [Compound 74, (E)-2-(4-(3-(6-(ethylthio)-3-methylbenzofuran-2-yl)-3-oxoprop-1-en-1-yl)-2,6-dimethylphenoxy)-2-methylpropanoic acid]	29.3									
CCc1c(C(=O)/C=C/c2cc(C)c(OC(C)(C)C(=O)O)c(C)c2)oc2cc(SC)ccc12 [Compound 63, (E)-2-(4-(3-(3-ethyl-6-(methylthio)benzofuran-2-yl)-3-oxoprop-1-en-1-yl)-2,6-dimethylphenoxy)-2-methylpropanoic acid]	95.5	1720	1700	812	0.25	4.3	good absorption	highly effective blood exposure	significantly prolonged half-life	
COc1ccc2cc(C(=O)/C=C/c3cc(C)c(OC(C)(C)C(=O)O)c(C)c3)oc2c1 [Compound 43, (E)-2-(4-(3-(6-methoxybenzofuran-2-yl)-3-oxoprop-1-en-1-yl)-2,6-dimethylphenoxy)-2-methylpropanoic acid]	116	1580	1550	2780	0.25	6.84	good absorption	highly effective blood exposure	significantly prolonged half-life	
CSc1ccc2cc(C(=O)/C=C/c3cc(C)c(OC(C)(C)C(=O)O)c(C)c3)sc2c1 [Compound 81, (E)-2-(2,6-dimethyl-4-(3-(6-(methylthio)benzo[b]thiophen-2-yl)-3-oxoprop-1-en-1-yl)phenoxy)-2-methylpropanoic acid]	94.1	811	806	302	0.25	3.35	good absorption	highly effective blood exposure	significantly prolonged half-life	
CSc1ccc2c(C)c(C(=O)/C=C/c3cc(C)c(OC(C)(C)C(=O)O)c(C)c3)oc2c1 [Compound 62, (E)-2-(2,6-dimethyl-4-(3-(3-methyl-6-(methylthio)benzofuran-2-yl)-3-oxoprop-1-en-1-yl)phenoxy)-2-methylpropanoic acid]	132	3150	3040	1830	0.25	8.87	good absorption	highly effective blood exposure	significantly prolonged half-life	weak activation
CSc1ccc2cc(C(=O)/C=C/c3cc(C)c(OC(C)(C)C(=O)O)c(C)c3)oc2c1 [Compound 51, (E)-2-(2,6-dimethyl-4-(3-(6-(methylthio)benzofuran-2-yl)-3-oxoprop-1-en-1-yl)phenoxy)-2-methylpropanoic acid]	35.3	479	412	484	0.25	12.3	good absorption	highly effective blood exposure	significantly prolonged half-life	little effect
CSc1ccc(C(=O)/C=C/c2cc(C)c(OC(C)(C)C(=O)O)c(C)c2)c2occc12 [Compound 5, (E)-2-(2,6-dimethyl-4-(3-(4-(methylthio)benzofuran-7-yl)-3-oxoprop-1-en-1-yl)phenoxy)-2-methylpropanoic acid]	26.2	3240	3110	2850	0.25	12.3	good absorption	highly effective blood exposure	significantly prolonged half-life	
CSc1ccc(C(=O)/C=C/c2cc(C)c(OC(C)(C)C(=O)O)c(C)c2)c2ccoc12 [Compound 27, (E)-2-(2,6-dimethyl-4-(3-(7-(methylthio)benzofuran-4-yl)-3-oxoprop-1-en-1-yl)phenoxy)-2-methylpropanoic acid]	124									
CSc1ccc2c(C)c(C(=O)/C=C/c3cc(Cl)c(OC(C)(C)C(=O)O)c(Cl)c3)oc2c1 [Compound 103, (E)-2-(2,6-dichloro-4-(3-(3-methyl-6-(methylthio)benzofuran-2-yl)-3-oxoprop-1-en-1-yl)phenoxy)-2-methylpropanoic acid]	788	50900	50400	5030	4.08	3.28	good absorption	highly effective blood exposure	significantly prolonged half-life	significantly reduced
CCSc1ccc(C(=O)/C=C/c2cc(C)c(OC(C)(C)C(=O)O)c(C)c2)c2occc12 [Compound 6, (E)-2-(4-(3-(4-(ethylthio)benzofuran-7-yl)-3-oxoprop-1-en-1-yl)-2,6-dimethylphenoxy)-2-methylpropanoic acid]	62.6									
